IC50 data for one compound are collected here from US7914769B2, “Compounds for treating human papillomavirus” (priority 2004, dated 2011).

The target in one test is E6 (Human papillomavirus type 16, UniProt P03126). As to the kind of experiment: E6 inhibition (IC50, assay not specified). It is filed as biochemical. The text has this:
In some embodiments, the interaction of a compound described herein with E6 protein can be assayed in vitro, using routine techniques. In some in vitro assays, the ability of a compound described herein to inhibit the binding of E6 protein to an E6 binding protein can be tested. For example, the E6 protein can be labeled, e.g., radiolabeled, mixed with a compound described herein, and the binding of E6 protein to a binding protein, e.g., E6BP or E6AP, can be determined. Binding efficiency can be calculated as percent input bound minus background. Other in vitro assays can involve indirect measurements of the ability of a compound described herein to inhibit the binding of E6 protein to an E6 binding protein. For example, in vitro p53 degradation experiments can be performed, e.g., as described by Crook et al. (Cell, 67:547-556 (1991)). The IC50 for binding and p53 degradation for the compounds described herein can be tabulated using routine methods.
“IC50” as used herein is the concentration of a compound that produces half-maximal inhibition of protein activity, e.g., E6 activity.

The target in a further test is HPV E6 protein (Human papillomavirus type 16, UniProt P03126). As to the kind of experiment: In vitro p53 degradation assay (E6 and p53 made in rabbit reticulocyte lysate).
Chain of HPV E6 protein (P03126 whole entry): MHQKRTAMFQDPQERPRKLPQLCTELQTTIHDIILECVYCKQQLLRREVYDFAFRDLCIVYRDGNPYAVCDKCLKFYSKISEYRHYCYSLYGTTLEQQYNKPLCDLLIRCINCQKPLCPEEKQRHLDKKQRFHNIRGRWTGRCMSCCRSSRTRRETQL

pIC50: −log10 of the molar value.

Chain of E6 (P03126 whole entry): as above

Broadly, the pIC50 is −log10 of the IC50, conventionally taken in molar units. High values mean a low IC50, low ones a high IC50. On to `CCN(C(=O)c1cc2ccccc2cc1O)c1ccccc1`, for which the figures for the pIC50 against E6 and at HPV E6 protein were 6.70 to 7.00 and 5.70 to 6.00, respectively.
